# Test system: 817829-284-R-J1-PDC complex spheroid viability
# Test: Anticancer human tumor 817829-284-R-J1-PDC patient-derived colon adenocarcinoma cell line growth inhibition [POLQ]
# Conditions: for IC50: curve of first compound; for viability, T/C: stronger effect = lower value
# Summary of the method: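 Three-cell-type spheroids modelling solid tumor plus stroma served as the readout system; POL inhibitors were tested individually and in combination, concentration ranges set by clinical Cmax where known.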
# [1] = second compound 0.0316 µM, first compound 0.0316 µM
# [2] = second compound 0.0316 µM, first compound 0.1 µM
# [3] = second compound 0.1 µM, first compound 0.0316 µM
# [4] = second compound 0.1 µM, first compound 0.1 µM
# [5] = second compound 0.316 µM, first compound 0.0316 µM
# [6] = second compound 0.316 µM, first compound 0.1 µM
# [7] = second compound 1 µM, first compound 0.0316 µM
# [8] = second compound 1 µM, first compound 0.1 µM
# [9] = second compound 3.16 µM, first compound 0.0316 µM
# [10] = second compound 3.16 µM, first compound 0.1 µM
# [11] = second compound 10 µM, first compound 0.0316 µM
# [12] = second compound 10 µM, first compound 0.1 µM
# [13] = second compound 0.0316 µM, first compound 0.316 µM
# [14] = second compound 0.0316 µM, first compound 1 µM
# [15] = second compound 0.0316 µM, first compound 3.16 µM
# [16] = second compound 0.0316 µM, first compound 10 µM
# [17] = second compound 0.1 µM, first compound 0.316 µM
# [18] = second compound 0.1 µM, first compound 1 µM
# [19] = second compound 0.1 µM, first compound 3.16 µM
# [20] = second compound 0.1 µM, first compound 10 µM
# [21] = second compound 0.316 µM, first compound 0.316 µM
# [22] = second compound 0.316 µM, first compound 1 µM
# [23] = second compound 0.316 µM, first compound 3.16 µM
# [24] = second compound 0.316 µM, first compound 10 µM
# [25] = second compound 1 µM, first compound 0.316 µM
# [26] = second compound 1 µM, first compound 1 µM
# [27] = second compound 1 µM, first compound 3.16 µM
# [28] = second compound 1 µM, first compound 10 µM
# [29] = second compound 3.16 µM, first compound 0.316 µM
# [30] = second compound 3.16 µM, first compound 1 µM
# [31] = second compound 3.16 µM, first compound 3.16 µM
# [32] = second compound 3.16 µM, first compound 10 µM
# [33] = second compound 10 µM, first compound 0.316 µM
# [34] = second compound 10 µM, first compound 1 µM
# [35] = second compound 10 µM, first compound 3.16 µM
# [36] = second compound 10 µM, first compound 10 µM
# 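Also: spheroids exposed to compounds for 7 days.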
# 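For viability, T/C in this document: 100% = DMSO vehicle-treated spheroids.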
smiles,measurement,setting,value
CC[C@@]1(O)C(=O)OCc2c1cc1n(c2=O)Cc2cc3c(CN(C)C)c(O)ccc3nc2-1 + Nc1ccc(C#CCN(C(=O)Cc2ncc(C(F)(F)F)cc2C(F)(F)F)c2ccc(F)cc2)nn1,IC50,second compound 0.0316 µM,8.46 nM
same,IC50,second compound 0.1 µM,9.72 nM
same,IC50,second compound 0.316 µM,11 nM
same,IC50,second compound 1 µM,8.84 nM
same,IC50,second compound 3.16 µM,12 nM
same,IC50,second compound 10 µM,6.8 nM
same,"viability, T/C","second compound 0.0316 µM, first compound 0.000316 µM",91.3%
same,"viability, T/C","second compound 0.0316 µM, first compound 0.001 µM",99%
same,"viability, T/C","second compound 0.0316 µM, first compound 0.00316 µM",85.9%
same,"viability, T/C","second compound 0.0316 µM, first compound 0.01 µM",43.2%
same,"viability, T/C",[1],24.2%
same,"viability, T/C",[2],15.9%
same,"viability, T/C","second compound 0.1 µM, first compound 0.000316 µM",90.2%
same,"viability, T/C","second compound 0.1 µM, first compound 0.001 µM",86%
same,"viability, T/C","second compound 0.1 µM, first compound 0.00316 µM",88.2%
same,"viability, T/C","second compound 0.1 µM, first compound 0.01 µM",48.9%
same,"viability, T/C",[3],20.9%
same,"viability, T/C",[4],17.3%
same,"viability, T/C","second compound 0.316 µM, first compound 0.000316 µM",106%
same,"viability, T/C","second compound 0.316 µM, first compound 0.001 µM",93.3%
same,"viability, T/C","second compound 0.316 µM, first compound 0.00316 µM",85%
same,"viability, T/C","second compound 0.316 µM, first compound 0.01 µM",54.4%
same,"viability, T/C",[5],21.3%
same,"viability, T/C",[6],17.9%
same,"viability, T/C","second compound 1 µM, first compound 0.000316 µM",111%
same,"viability, T/C","second compound 1 µM, first compound 0.001 µM",115%
same,"viability, T/C","second compound 1 µM, first compound 0.00316 µM",86.6%
same,"viability, T/C","second compound 1 µM, first compound 0.01 µM",45.5%
same,"viability, T/C",[7],24.4%
same,"viability, T/C",[8],15.7%
same,"viability, T/C","second compound 3.16 µM, first compound 0.000316 µM",95.1%
same,"viability, T/C","second compound 3.16 µM, first compound 0.001 µM",94.3%
same,"viability, T/C","second compound 3.16 µM, first compound 0.00316 µM",82%
same,"viability, T/C","second compound 3.16 µM, first compound 0.01 µM",57.2%
same,"viability, T/C",[9],20.1%
same,"viability, T/C",[10],13.9%
same,"viability, T/C","second compound 10 µM, first compound 0.000316 µM",93.8%
same,"viability, T/C","second compound 10 µM, first compound 0.001 µM",91.2%
same,"viability, T/C","second compound 10 µM, first compound 0.00316 µM",62.1%
same,"viability, T/C","second compound 10 µM, first compound 0.01 µM",43.2%
same,"viability, T/C",[11],25.6%
same,"viability, T/C",[12],15.1%
COc1cc(C2c3cc4c(cc3C(OC3OC5COC(C)OC5C(O)C3O)C3COC(=O)C23)OCO4)cc(OC)c1O (stereo unspecified) + Nc1ccc(C#CCN(C(=O)Cc2ncc(C(F)(F)F)cc2C(F)(F)F)c2ccc(F)cc2)nn1,IC50,second compound 0.0316 µM,68.1 nM
same,IC50,second compound 0.1 µM,99.6 nM
same,IC50,second compound 0.316 µM,76.2 nM
same,IC50,second compound 1 µM,129 nM
same,IC50,second compound 3.16 µM,83.6 nM
same,IC50,second compound 10 µM,73.7 nM
same,"viability, T/C",[1],67.2%
same,"viability, T/C",[2],43.9%
same,"viability, T/C",[13],15.4%
same,"viability, T/C",[14],24.5%
same,"viability, T/C",[15],13.7%
same,"viability, T/C",[16],6.78%
same,"viability, T/C",[3],100%
same,"viability, T/C",[4],50.4%
same,"viability, T/C",[17],18%
same,"viability, T/C",[18],20.8%
same,"viability, T/C",[19],12.4%
same,"viability, T/C",[20],7.13%
same,"viability, T/C",[5],88%
same,"viability, T/C",[6],38.7%
same,"viability, T/C",[21],15.3%
same,"viability, T/C",[22],24.4%
same,"viability, T/C",[23],13.6%
same,"viability, T/C",[24],4.94%
same,"viability, T/C",[7],79.9%
same,"viability, T/C",[8],59.5%
same,"viability, T/C",[25],16.7%
same,"viability, T/C",[26],19.8%
same,"viability, T/C",[27],11.6%
same,"viability, T/C",[28],5.6%
same,"viability, T/C",[9],74.6%
same,"viability, T/C",[10],47.3%
same,"viability, T/C",[29],17.4%
same,"viability, T/C",[30],22.4%
same,"viability, T/C",[31],12%
same,"viability, T/C",[32],6.2%
same,"viability, T/C",[11],71.9%
same,"viability, T/C",[12],42.7%
same,"viability, T/C",[33],18.8%
same,"viability, T/C",[34],13.1%
same,"viability, T/C",[35],10.7%
same,"viability, T/C",[36],5.77%
O=c1[nH]cc(F)c(=O)[nH]1 + Nc1ccc(C#CCN(C(=O)Cc2ncc(C(F)(F)F)cc2C(F)(F)F)c2ccc(F)cc2)nn1,IC50,second compound 0.0316 µM,1250 nM
same,IC50,second compound 0.1 µM,1770 nM
same,IC50,second compound 0.316 µM,1710 nM
same,IC50,second compound 1 µM,1600 nM
same,IC50,second compound 3.16 µM,1370 nM
same,IC50,second compound 10 µM,1300 nM
same,"viability, T/C",[1],99.6%
same,"viability, T/C",[2],110%
same,"viability, T/C",[13],95.6%
same,"viability, T/C",[14],54.1%
same,"viability, T/C",[15],34%
same,"viability, T/C",[16],28.1%
same,"viability, T/C",[3],96.4%
same,"viability, T/C",[4],102%
same,"viability, T/C",[17],84.4%
same,"viability, T/C",[18],64.4%
same,"viability, T/C",[19],35.8%
same,"viability, T/C",[20],27%
same,"viability, T/C",[5],100%
same,"viability, T/C",[6],98.8%
same,"viability, T/C",[21],93.3%
same,"viability, T/C",[22],63.9%
same,"viability, T/C",[23],34%
same,"viability, T/C",[24],23.7%
same,"viability, T/C",[7],108%
same,"viability, T/C",[8],89.3%
same,"viability, T/C",[25],93.5%
same,"viability, T/C",[26],60.5%
same,"viability, T/C",[27],33.7%
same,"viability, T/C",[28],26.1%
same,"viability, T/C",[9],86.2%
same,"viability, T/C",[10],108%
same,"viability, T/C",[29],77.2%
same,"viability, T/C",[30],55.8%
same,"viability, T/C",[31],38.1%
same,"viability, T/C",[32],27.4%
same,"viability, T/C",[11],92.1%
same,"viability, T/C",[12],92.8%
same,"viability, T/C",[33],85.5%
same,"viability, T/C",[34],54.8%
same,"viability, T/C",[35],33%
same,"viability, T/C",[36],26.7%

# Reference: PubChem BioAssay AID1963839 (Molecular Pharmacology Branch, DTP, NCI, 2024)
